Assay results taken from US9255090B2, “Heterocyclyl derivatives and their use as prostaglandin D2 receptor modulators” (Actelion Pharmaceuticals Ltd., priority 2012, dated 2016).

Target: hCRTH2 receptor (Homo sapiens (Human), UniProt Q9Y5Y4)
Assay: hCRTH2 receptor membranes radioligand (3H-PGD2) displacement assay
Assay type: binding
Conditions: 3H-PGD2 radioligand displacement, HEK293-hCRTH2 membranes
Procedure, shortened: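 Compound was first mixed with buffer, then 3H-PGD2 was added at 2.5 nM, and the reaction was started with hCRTH2 membranes from HEK293 cells at 20 μg/well. After 90 min at room temperature, mixtures were filtered and washed with ice-cold buffer, and retained radioactivity was counted.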

hCRTH2 receptor, sequence (Q9Y5Y4 whole entry): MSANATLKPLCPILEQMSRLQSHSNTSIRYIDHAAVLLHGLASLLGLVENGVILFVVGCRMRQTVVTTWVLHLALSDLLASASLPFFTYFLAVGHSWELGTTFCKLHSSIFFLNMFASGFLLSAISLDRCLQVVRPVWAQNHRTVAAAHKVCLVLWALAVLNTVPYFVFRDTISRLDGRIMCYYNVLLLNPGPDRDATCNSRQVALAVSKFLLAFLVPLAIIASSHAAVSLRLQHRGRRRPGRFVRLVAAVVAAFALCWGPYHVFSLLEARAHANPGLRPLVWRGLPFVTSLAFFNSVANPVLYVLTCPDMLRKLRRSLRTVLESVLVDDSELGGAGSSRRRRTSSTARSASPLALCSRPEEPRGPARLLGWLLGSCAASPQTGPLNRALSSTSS

IC50	Structure (SMILES)
3.1 nM	O=C(O)Cc1ccc(OCCF)c(-c2ccc(F)c3c2CN(C(=O)[C@@H]2C[C@H]2c2ccccc2)CC3)c1 [Example 427, {4-(2-Fluoro-ethoxy)-3-[5-fluoro-2-((1R,2R)-2-phenyl-cyclopropanecarbonyl)-1,2,3,4-tetrahydro-isoquinolin-8-yl]-phenyl}-acetic acid]
50.7 nM	COc1ccc(C2(C(=O)O)CC2)cc1-c1ccc(F)c2c1CN(C(=O)[C@@H]1C[C@H]1c1ccccc1)CC2 [Example 429, 1-{3-[5-Fluoro-2-((1R,2R)-2-phenyl-cyclopropanecarbonyl)-1,2,3,4-tetrahydro-isoquinolin-8-yl]-4-methoxy-phenyl}-cyclopropanecarboxylic acid]
14.9 nM	O=C(O)Cc1ccc(OC2CC2)c(-c2ccc(F)c3c2CN(C(=O)OCc2ccccc2)CC3)c1 [Example 430, 8-(5-Carboxymethyl-2-cyclopropoxy-phenyl)-5-fluoro-3,4-dihydro-1H-isoquinoline-2-carboxylic acid benzyl ester]
2.6 nM	CCOc1ccc(CC(=O)O)cc1-c1ccc(F)c2c1CN(C(=O)NCCc1ccccc1)CC2 [Example 435, [4-Ethoxy-3-(5-fluoro-2-phenethylcarbamoyl-1,2,3,4-tetrahydro-isoquinolin-8-yl)-phenyl]-acetic acid]
5.4 nM	CCOc1ccc(CC(=O)O)cc1-c1ccc(F)c2c1CN(C(=O)NCc1ccccc1Cl)CC2 [Example 436, {3-[2-(2-Chloro-benzylcarbamoyl)-5-fluoro-1,2,3,4-tetrahydro-isoquinolin-8-yl]-4-ethoxy-phenyl}-acetic acid]
10.9 nM	CCOc1ccc(CC(=O)O)cc1-c1ccc(F)c2c1CN(C(=O)NCc1ccccc1OC)CC2 [Example 437, {4-Ethoxy-3-[5-fluoro-2-(2-methoxy-benzylcarbamoyl)-1,2,3,4-tetrahydro-isoquinolin-8-yl]-phenyl}-acetic acid]
2.5 nM	CCOc1cc(CC(=O)O)ccc1-c1ccc(F)c2c1CN(C(=O)NCc1ccccc1OC)CC2 [Example 445, {3-Ethoxy-4-[5-fluoro-2-(2-methoxy-benzylcarbamoyl)-1,2,3,4-tetrahydro-isoquinolin-8-yl]-phenyl}-acetic acid]
4.7 nM	CCOc1cc(CC(=O)O)ccc1-c1ccc(F)c2c1CN(C(=O)NCc1ccccc1)CC2 [Example 446, [4-(2-Benzylcarbamoyl-5-fluoro-1,2,3,4-tetrahydro-isoquinolin-8-yl)-3-ethoxy-phenyl]-acetic acid]

Further lines, the compound ahead of its results:

Structure (SMILES)	IC50
CC(C)(C)Oc1ccc(CC(=O)O)cc1-c1ccc(F)c2c1CN(C(=O)[C@@H]1C[C@H]1c1ccccc1)CC2 [Example 428, {4-tert-Butoxy-3-[5-fluoro-2-((1R,2R)-2-phenyl-cyclopropanecarbonyl)-1,2,3,4-tetrahydro-isoquinolin-8-yl]-phenyl}-acetic acid]	3.7 nM
CCOc1ccc(CC(=O)O)cc1-c1ccc(F)c2c1CN(C(=O)NCc1ccccc1F)CC2 [Example 432, {4-Ethoxy-3-[5-fluoro-2-(2-fluoro-benzylcarbamoyl)-1,2,3,4-tetrahydro-isoquinolin-8-yl]-phenyl}-acetic acid]	5.3 nM
CCOc1ccc(CC(=O)O)cc1-c1ccc(F)c2c1CN(C(=O)NCc1cccc(F)c1)CC2 [Example 433, {4-Ethoxy-3-[5-fluoro-2-(3-fluoro-benzylcarbamoyl)-1,2,3,4-tetrahydro-isoquinolin-8-yl]-phenyl}-acetic acid]	59.3 nM
CCOc1ccc(CC(=O)O)cc1-c1ccc(F)c2c1CN(C(=O)NCc1ccc(F)cc1)CC2 [Example 434, {4-Ethoxy-3-[5-fluoro-2-(4-fluoro-benzylcarbamoyl)-1,2,3,4-tetrahydro-isoquinolin-8-yl]-phenyl}-acetic acid]	0.7 nM
CCCNC(=O)N1CCc2c(F)ccc(-c3cc(CC(=O)O)ccc3OCC)c2C1 [Example 439, [4-Ethoxy-3-(5-fluoro-2-propylcarbamoyl-1,2,3,4-tetrahydro-isoquinolin-8-yl)-phenyl]-acetic acid]	126 nM
CCOc1cc(CC(=O)O)ccc1-c1ccc(F)c2c1CN(C(=O)NCc1ccccc1F)CC2 [Example 440, {3-Ethoxy-4-[5-fluoro-2-(2-fluoro-benzylcarbamoyl)-1,2,3,4-tetrahydro-isoquinolin-8-yl]-phenyl}-acetic acid]	3.8 nM
CCOc1cc(CC(=O)O)ccc1-c1ccc(F)c2c1CN(C(=O)NCc1cccc(F)c1)CC2 [Example 441, {3-Ethoxy-4-[5-fluoro-2-(3-fluoro-benzylcarbamoyl)-1,2,3,4-tetrahydro-isoquinolin-8-yl]-phenyl}-acetic acid]	17.5 nM
CCOc1cc(CC(=O)O)ccc1-c1ccc(F)c2c1CN(C(=O)NCc1ccc(F)cc1)CC2 [Example 442, {3-Ethoxy-4-[5-fluoro-2-(4-fluoro-benzylcarbamoyl)-1,2,3,4-tetrahydro-isoquinolin-8-yl]-phenyl}-acetic acid]	5.3 nM
CCOc1cc(CC(=O)O)ccc1-c1ccc(F)c2c1CN(C(=O)NCCc1ccccc1)CC2 [Example 443, [3-Ethoxy-4-(5-fluoro-2-phenethylcarbamoyl-1,2,3,4-tetrahydro-isoquinolin-8-yl)-phenyl]-acetic acid]	18.1 nM
CCOc1cc(CC(=O)O)ccc1-c1ccc(F)c2c1CN(C(=O)NCc1ccccc1Cl)CC2 [Example 444, {4-[2-(2-Chloro-benzylcarbamoyl)-5-fluoro-1,2,3,4-tetrahydro-isoquinolin-8-yl]-3-ethoxy-phenyl}-acetic acid]	2 nM
CCCNC(=O)N1CCc2c(F)ccc(-c3ccc(CC(=O)O)cc3OCC)c2C1 [Example 447, [3-Ethoxy-4-(5-fluoro-2-propylcarbamoyl-1,2,3,4-tetrahydro-isoquinolin-8-yl)-phenyl]-acetic acid]	78.2 nM
CCOc1cc(CC(=O)O)ccc1-c1ccc(F)c2c1CN(C(=O)NCc1ccccn1)CC2 [Example 448, (3-Ethoxy-4-{5-fluoro-2-[(pyridin-2-ylmethyl)-carbamoyl]-1,2,3,4-tetrahydro-isoquinolin-8-yl}-phenyl)-acetic acid]	9.2 nM
CCOc1ccc(CC(=O)O)cc1-c1ccc(F)c2c1CN(C(=O)NCc1ccccn1)CC2 [Example 449, (4-Ethoxy-3-{5-fluoro-2-[(pyridin-2-ylmethyl)-carbamoyl]-1,2,3,4-tetrahydro-isoquinolin-8-yl}-phenyl)-acetic acid]	14.2 nM
